Assay results: PubChem BioAssay (NCI)
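The compound was tested at five concentrations on cells cultured in 96-well plates, with a 48-hour exposure period. GI50 marks 50% less growth. At the TGI there is no net growth.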

Experiments:
Test in all cases: NCI anticancer screen, dose series, 48 h
[1] = test system: HS 578T breast
[2] = test system: OVCAR-5 ovarian
[3] = test system: SK-MEL-5 melanoma
[4] = test system: SNB-19 CNS
[5] = test system: HCT-15 colon
[6] = test system: UACC-257 melanoma
[7] = test system: PC-3 prostate
[8] = test system: SW-620 colon
[9] = test system: SK-OV-3 ovarian
[10] = test system: MCF7 breast
[11] = test system: HOP-62 NSCLC
[12] = test system: MDA-MB-231 breast
[13] = test system: KM12 colon
[14] = test system: OVCAR-4 ovarian
[15] = test system: CCRF-CEM leukemia
[16] = test system: NCI-H226 lung
[17] = test system: A549 NSCLC
[18] = test system: HT29 colon
[19] = test system: SF-295 CNS
[20] = test system: OVCAR-3 ovarian
[21] = test system: NCI-H460 lung
[22] = test system: IGROV1 ovarian
[23] = test system: NCI-H23 lung
[24] = test system: MOLT-4 leukemia
[25] = test system: UACC-62 melanoma
[26] = test system: SK-MEL-2 melanoma
[27] = test system: ACHN renal
[28] = test system: SF-539 CNS
[29] = test system: RXF 393 renal
[30] = test system: EKVX NSCLC
[31] = test system: COLO 205 colon
[32] = test system: HCC-2998 colon
[33] = test system: 786-0 renal
[34] = test system: NCI/ADR-RES ovarian
[35] = test system: SR leukemia
[36] = test system: SNB-75 CNS
[37] = test system: UO-31 renal
[38] = test system: SN12C renal
[39] = test system: T-47D breast
[40] = test system: HCT-116 colon
[41] = test system: M14 melanoma
[42] = test system: NCI-H522 lung
[43] = test system: TK-10 renal
[44] = test system: MDA-MB-435
[45] = test system: DU-145 prostate
[46] = test system: SF-268 CNS
[47] = test system: K-562 leukemia
[48] = test system: BT-549 breast
[49] = test system: MALME-3M melanoma
[50] = test system: OVCAR-8 ovarian
[51] = test system: LOX IMVI melanoma
[52] = test system: RPMI-8226 leukemia
[53] = test system: CAKI-1 renal
[54] = test system: SK-MEL-28 melanoma
[55] = test system: U251 CNS
[56] = test system: A498 renal
[57] = test system: HL-60(TB) leukemia

## COc1ccc(S(=O)Cc2cc(OC)c(OC)c(OC)c2)cc1 (stereo not given)
[1]
  TGI: > 100 µM
[2]
  TGI: > 100 µM
[3]
  TGI: > 100 µM
[4]
  TGI: > 100 µM
[5]
  TGI: > 100 µM
[6]
  TGI: > 100 µM
[7]
  TGI: > 100 µM
[8]
  TGI: > 100 µM
[9]
  TGI: > 100 µM
[10]
  TGI: > 100 µM
[11]
  TGI: > 100 µM
[12]
  TGI: > 100 µM
[13]
  TGI: > 100 µM
[14]
  TGI: > 100 µM
[15]
  TGI: > 100 µM
[16]
  TGI: > 100 µM
[17]
  TGI: > 100 µM
[18]
  TGI: > 100 µM
[19]
  TGI: > 100 µM
[20]
  TGI: > 100 µM
[21]
  TGI: > 100 µM
[22]
  TGI: > 100 µM
[23]
  TGI: > 100 µM
[24]
  TGI: > 100 µM
[25]
  TGI: > 100 µM
[26]
  TGI: > 100 µM
[27]
  TGI: > 100 µM
[28]
  TGI: > 100 µM
[29]
  TGI: > 100 µM
[30]
  TGI: > 100 µM
[31]
  TGI: > 100 µM
[32]
  TGI: > 100 µM
[33]
  TGI: > 100 µM
[34]
  TGI: > 100 µM
[35]
  TGI: > 100 µM
[36]
  TGI: > 100 µM
[37]
  TGI: > 100 µM
[38]
  TGI: > 100 µM
[39]
  TGI: > 100 µM
[40]
  TGI: > 100 µM
[41]
  TGI: > 100 µM
[42]
  TGI: > 100 µM
[43]
  TGI: > 100 µM
[44]
  TGI: 35.7 µM
[45]
  TGI: > 100 µM
[46]
  TGI: > 100 µM
[47]
  TGI: > 100 µM
[48]
  TGI: > 100 µM
[49]
  TGI: > 100 µM
[50]
  TGI: > 100 µM
[51]
  TGI: > 100 µM
[52]
  TGI: > 100 µM
[53]
  TGI: > 100 µM
[54]
  TGI: > 100 µM
[55]
  TGI: > 100 µM

## Cc1ccc(/C(=N/NS(=O)(=O)c2ccc([N+](=O)[O-])cc2)Sc2cc(Cl)c(C)cc2S(N)(=O)=O)cc1
[1]
  GI50: > 100 µM
  TGI: > 100 µM
[2]
  GI50: > 100 µM
  TGI: > 100 µM
[3]
  GI50: > 100 µM
  TGI: > 100 µM
[4]
  GI50: > 100 µM
  TGI: > 100 µM
[5]
  GI50: > 100 µM
  TGI: > 100 µM
[6]
  GI50: > 100 µM
  TGI: > 100 µM
[7]
  GI50: 12.5 µM
  TGI: > 100 µM
[8]
  GI50: > 100 µM
  TGI: > 100 µM
[9]
  GI50: > 100 µM
  TGI: > 100 µM
[10]
  GI50: > 100 µM
  TGI: > 100 µM
[11]
  GI50: > 100 µM
  TGI: > 100 µM
[12]
  GI50: 27.3 µM
  TGI: > 100 µM
[13]
  GI50: > 100 µM
  TGI: > 100 µM
[14]
  GI50: > 100 µM
  TGI: > 100 µM
[15]
  GI50: > 100 µM
  TGI: > 100 µM
[16]
  GI50: > 100 µM
  TGI: > 100 µM
[17]
  GI50: > 100 µM
  TGI: > 100 µM
[56]
  GI50: > 100 µM
  TGI: > 100 µM
[18]
  GI50: > 100 µM
  TGI: > 100 µM
[19]
  GI50: > 100 µM
  TGI: > 100 µM
[20]
  GI50: > 100 µM
  TGI: > 100 µM
[21]
  GI50: > 100 µM
  TGI: > 100 µM
[22]
  GI50: > 100 µM
  TGI: > 100 µM
[23]
  GI50: > 100 µM
  TGI: > 100 µM
[24]
  GI50: > 100 µM
  TGI: > 100 µM
[25]
  GI50: > 100 µM
  TGI: > 100 µM
[26]
  GI50: > 100 µM
  TGI: > 100 µM
[27]
  GI50: > 100 µM
  TGI: > 100 µM
[28]
  GI50: > 100 µM
  TGI: > 100 µM
[29]
  GI50: 47.7 µM
  TGI: > 100 µM
[30]
  GI50: > 100 µM
  TGI: > 100 µM
[31]
  GI50: > 100 µM
  TGI: > 100 µM
[33]
  GI50: > 100 µM
  TGI: > 100 µM
[34]
  GI50: > 100 µM
  TGI: > 100 µM
[35]
  GI50: > 100 µM
  TGI: > 100 µM
[36]
  GI50: > 100 µM
  TGI: > 100 µM
[37]
  GI50: > 100 µM
  TGI: > 100 µM
[39]
  GI50: > 100 µM
  TGI: > 100 µM
[40]
  GI50: > 100 µM
  TGI: > 100 µM
[41]
  GI50: > 100 µM
  TGI: > 100 µM
[42]
  GI50: > 100 µM
  TGI: > 100 µM
[43]
  GI50: > 100 µM
  TGI: > 100 µM
[44]
  GI50: > 100 µM
  TGI: > 100 µM
[45]
  GI50: > 100 µM
  TGI: > 100 µM
[46]
  GI50: > 100 µM
  TGI: > 100 µM
[47]
  GI50: > 100 µM
  TGI: > 100 µM
[48]
  GI50: > 100 µM
  TGI: > 100 µM
[49]
  GI50: 11.9 µM
  TGI: > 100 µM
[50]
  GI50: > 100 µM
  TGI: > 100 µM
[57]
  GI50: > 100 µM
  TGI: > 100 µM
[51]
  GI50: > 100 µM
  TGI: > 100 µM
[52]
  GI50: 11.9 µM
  TGI: > 100 µM
[53]
  GI50: > 100 µM
  TGI: > 100 µM
[54]
  GI50: > 100 µM
  TGI: > 100 µM
[55]
  GI50: > 100 µM
  TGI: > 100 µM
